Source: patent US8586588B2, “Aryl pyridazinone derivatives and their use as H3 receptor ligands” (Cephalon, Inc., priority 2006, dated 2013)
Read-outs that look alike come from different tables or passages of the source.

What was measured:
[1] = target: T1, human H3 receptor (Homo sapiens, UniProt Q9Y5N1); assay: Human H3 radioligand binding ([3H]-N-alpha-methylhistamine, CHO cell membranes, SPA); conditions: binding constant as letter class
T1 construct: expressed in transfected cells
Experimental: (§1) Cell pellets were resuspended in 5 mM Tris-HCl, pH 7.5 with […] and a cocktail of protease inhibitors (Complete Protease Inhibition Tablets, Roche Diagnostics). Cells were disrupted using a polytron cell homogenizer and the suspension was centrifuged at 1000×g for 10 minutes at 4° C. The pellet was discarded and the supernatant centrifuged at 40,000×g for 30 min at 4° C. This membrane pellet was washed in membrane buffer containing 50 mM Tris-HCl, pH 7.5 with 0.6 mM EDTA, 5 mM MgCl2 and protease inhibitors, recentrifuged as above and the final pellet resuspended in membrane buffer plus 250 mM sucrose and frozen at −80° C.
(§2) Membranes were resuspended in 50 mM Tris HCl (pH 7.4), 5 mM MgCl2, 0.1% BSA. The membrane suspensions (10 μg protein per well) were incubated in a 96 well microtiter plate with [^3H]-N-alpha-methylhistamine (approximately 1 nM final concentration), test compounds at various concentrations (0.01 nM-30 μM) and scintillation proximity beads (Perkin Elmer, FlashBlueGPCR Scintillating Beads) in a final volume of 80 μl for 4 hours at room temperature, protected from light. Non-specific binding was determined in the presence of 10 μM clobenpropit. Radioligand bound to receptor, and therefore in proximity to the scintillation beads, was measured using a MicroBeta scintillation counter.

[2] = target: T2, rat histamine H3 receptor (Rattus norvegicus, UniProt Q9QYN8); assay: Rat H3 radioligand binding ([3H]-N-alpha-methylhistamine, CHO-A3 cell membranes, SPA); conditions: binding constant as letter class
T2 construct: encoding the entire 445-amino-acid rat histamine H3 receptor; expressed in transfected cells
Experimental: as §1, with “This was engineered into the pIRES-neo3 mammalian expression vector, which was stably transfected into the CHO-A3 cell line (Euroscreen, Belgium), followed by clonal selection by limiting dilution. Cells were harvested and cell pellets were frozen (−80° C.). Cell pellets” for “Cell pellets”
as §2

T1 sequence (Q9Y5N1 whole entry): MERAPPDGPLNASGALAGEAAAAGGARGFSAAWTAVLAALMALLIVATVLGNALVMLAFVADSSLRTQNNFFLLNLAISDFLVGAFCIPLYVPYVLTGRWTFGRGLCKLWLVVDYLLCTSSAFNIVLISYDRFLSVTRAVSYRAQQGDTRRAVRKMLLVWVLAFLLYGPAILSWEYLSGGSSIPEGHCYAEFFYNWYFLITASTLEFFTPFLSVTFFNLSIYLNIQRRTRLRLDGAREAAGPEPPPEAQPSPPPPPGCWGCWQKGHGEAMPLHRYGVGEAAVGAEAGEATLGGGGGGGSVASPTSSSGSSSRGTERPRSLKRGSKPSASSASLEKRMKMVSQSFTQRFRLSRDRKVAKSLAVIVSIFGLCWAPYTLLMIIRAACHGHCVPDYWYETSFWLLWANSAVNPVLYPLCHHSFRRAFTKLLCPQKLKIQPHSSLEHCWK
T2 sequence (Q9QYN8 whole entry): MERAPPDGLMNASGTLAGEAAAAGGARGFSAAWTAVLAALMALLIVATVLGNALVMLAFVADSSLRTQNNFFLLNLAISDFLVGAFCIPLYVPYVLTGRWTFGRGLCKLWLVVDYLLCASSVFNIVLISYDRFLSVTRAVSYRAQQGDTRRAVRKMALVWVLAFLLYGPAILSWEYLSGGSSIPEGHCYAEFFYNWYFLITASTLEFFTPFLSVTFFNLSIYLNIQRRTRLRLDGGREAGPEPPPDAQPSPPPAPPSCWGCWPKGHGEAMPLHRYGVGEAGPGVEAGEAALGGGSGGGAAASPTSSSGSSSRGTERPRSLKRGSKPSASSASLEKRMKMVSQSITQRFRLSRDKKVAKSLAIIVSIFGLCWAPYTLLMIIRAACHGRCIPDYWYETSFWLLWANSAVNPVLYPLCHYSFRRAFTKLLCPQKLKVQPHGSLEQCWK

Structure (SMILES) | Ki ([1]; Table B) [nM] | Ki ([2]; Table B, read-out: rat H3 Ki) [nM] | Ki ([1]; Table A) [nM] | Ki ([2]; Table A, read-out: Rat H3 Ki) [nM]
Cc1n[nH]c(=O)cc1-c1ccc(OCCCN2CCC[C@H]2C)cc1 [Example 88, 6-Methyl-5-{4-[3-((R)-2-methyl-pyrrolidin-1-yl)-propoxy]-phenyl}-2H-pyridazin-3-one] | 0.1 to 100 | 0.1 to 100 |  | 
C[C@@H]1CCCN1CCCOc1ccc(-c2nn(C)c(=O)c3c2CCCC3)cc1 [Example 60, 2-Methyl-4-{4-[3-((R)-2-methyl-pyrrolidin-1-yl)-propoxy]-phenyl}-5,6,7,8-tetrahydro-2H-phthalazin-1-one] |  |  | 0.1 to 100 | 0.1 to 100
C[C@@H]1CCCN1CCCOc1ccc(-n2ncccc2=O)cc1 [Example 21, 2-{4-[3-((R)-2-Methyl-pyrrolidin-1-yl)-propoxy]-phenyl}-2H-pyridazin-3-one] |  |  | 0.1 to 100 | 501 to 1000
CC(C)n1nc(-c2ccc(OCCCN3CCCC(C)(C)C3)cc2)c2sccc2c1=O [Example 25, 7-{4-[3-(3,3-Dimethyl-piperidin-1-yl)-propoxy]-phenyl}-5-isopropyl-5H-thieno[2,3-d]pyridazin-4-one] |  |  | 101 to 500 | > 1000
O=c1c2ccccc2c(-c2ccc(OCCCN3CCCCC3)cc2)nn1Cc1ccc(Cl)cc1 [Example 55, 2-(4-Chloro-benzyl)-4-[4-(3-piperidin-1-yl-propoxy)-phenyl]-2H-phthalazin-1-one] |  |  | 0.1 to 100 | 0.1 to 100
Cn1ncc(-c2ccc(OCCCN3CCCCCC3)cc2)cc1=O [Example 93, 5-[4-(3-Azepan-1-yl-propoxy)-phenyl]-2-methyl-2H-pyridazin-3-one] | 0.1 to 100 | 0.1 to 100 |  | 
C[C@@H]1CCCN1CCCOc1ccc(-c2ccc(=O)n(-c3ccccc3)n2)cc1 [Example 20, 6-{4-[3-((R)-2-Methyl-pyrrolidin-1-yl)-propoxy]-phenyl}-2-phenyl-2H-pyridazin-3-one] |  |  | 0.1 to 100 | 0.1 to 100
CC(C)n1nc2c(cc1=O)CCc1cc(OCCCN3CCCCC3)ccc1-2 [Example 78, 2-Isopropyl-8-(3-piperidin-1-yl-propoxy)-5,6-dihydro-2H-benzo[h]cinnolin-3-one] |  |  | 0.1 to 100 | 0.1 to 100
CC(C)n1nc(-c2ccc(OCCCN3CCC[C@H]3C)cc2)ccc1=O [Example 5, 2-Isopropyl-6-{4-[3-((R)-2-methyl-pyrrolidin-1-yl)-propoxy]-phenyl}-2H-pyridazin-3-one] |  |  | 0.1 to 100 | 0.1 to 100
C[C@@H]1CCCN1CCCOc1ccc(-c2ccc(=O)n(C)n2)cc1Cl [Example 85, 6-{3-Chloro-4-[3-((R)-2-methyl-pyrrolidin-1-yl)-propoxy]-phenyl}-2-methyl-2H-pyridazin-3-one] | 0.1 to 100 | 0.1 to 100 |  | 
COC[C@@H]1CCCN1CCCOc1ccc(-c2nn(C(C)C)c(=O)c3ccsc23)cc1 [Example 26, 5-Isopropyl-7-{4-[3-((S)-2-methoxymethyl-pyrrolidin-1-yl)propoxy]-phenyl}-5H-thieno[2,3-d]pyridazin-4-one] |  |  | 0.1 to 100 | > 1000
COC[C@H]1CCCN1CCCOc1ccc(-c2nn(C(C)C)c(=O)c3ccsc23)cc1 [Example 27, 5-Isopropyl-7-{4-[3-((R)-2-methoxymethyl-pyrrolidin-1-yl)-propoxy]-phenyl}-5H-thieno[2,3-d]pyridazin-4-one] |  |  | > 1000 | > 1000
C[C@@H]1CCCN1CCCOc1ccc(C2=NN(c3ccccc3)C(=O)CC2)cc1 [Example 19] |  |  | 0.1 to 100 | 0.1 to 100
CC(C)n1nc(-c2ccc(OCCCN3CCC[C@H]3C)cc2)c2sccc2c1=O [Example 22, 5-Isopropyl-7-{4-[3-((R)-2-methyl-pyrrolidin-1-yl)-propoxy]-phenyl}-5H-thieno[2,3-d]pyridazin-4-one] |  |  | 0.1 to 100 | 0.1 to 100

Further lines, results first:

Ki ([1]; Table B) [nM] | Ki ([2]; Table B, read-out: rat H3 Ki) [nM] | Ki ([1]; Table A) [nM] | Ki ([2]; Table A, read-out: Rat H3 Ki) [nM] | Structure (SMILES)
0.1 to 100 | 0.1 to 100 |  |  | O=C1NN=C(c2ccc(OC3CCN(C4CCC4)CC3)cc2)C2CC12 (single isomer, unassigned) [Example 248, 5-[4-(1-Cyclobutyl-piperidin-4-yloxy)-phenyl]-3,4-diaza-bicyclo[4.1.0]hept-4-en-2-one]
0.1 to 100 | 0.1 to 100 |  |  | CC1CC(c2ccc(OCCCN3CCC[C@H]3C)cc2)=NNC1=O (stereo partly drawn) [Example 121, 4-Methyl-6-{4-[3-((R)-2-methyl-pyrrolidin-1-yl)-propoxy]-phenyl}-4,5-dihydro-2H-pyridazin-3-one]
101 to 500 | 101 to 500 |  |  | Cc1onc2c(=O)[nH]nc(-c3ccc(OC4CCN(C5CCC5)CC4)cc3)c12 [Example 205, 4-[4-(1-Cyclobutyl-piperidin-4-yloxy)-phenyl]-3-methyl-6H-isoxazolo[3,4-d]pyridazin-7-one]
0.1 to 100 | 0.1 to 100 |  |  | C[C@@H]1CCCN1CCCOc1ccc(C2=NN(c3ccccn3)C(=O)CC2)cc1 [Example 183, 6-{4-[3-((R)-2-Methyl-pyrrolidin-1-yl)-propoxy]-phenyl}-2-pyridin-2-yl-4,5-dihydro-2H-pyridazin-3-one]
0.1 to 100 | 0.1 to 100 |  |  | CC(C)N1N=C(c2ccc(OC3CCN(C4CCC4)CC3)cc2)C2CC2C1=O (centres unmarked) [Example 251, 5-[4-(1-Cyclobutyl-piperidin-4-yloxy)-phenyl]-3-isopropyl-3,4-diaza-bicyclo[4.1.0]hept-4-en-2-one]
0.1 to 100 | 0.1 to 100 |  |  | C[C@H]1CCCN1CCCOc1ccc(-c2ccc(=O)[nH]n2)cc1 [Example 239, 6-{4-[3-((S)-2-Methyl-pyrrolidin-1-yl)-propoxy]-phenyl}-2H-pyridazin-3-one]
0.1 to 100 | 0.1 to 100 |  |  | C[C@@H]1CCCN1CCCOc1ccc2c(c1)CCc1n[nH]c(=O)cc1-2 [Example 218, 8-[3-((R)-2-Methyl-pyrrolidin-1-yl)-propoxy]-5,6-dihydro-3H-benzo[f]cinnolin-2-one]
0.1 to 100 | 0.1 to 100 |  |  | CC1(C)CC(c2ccc(OC3CCN(C4CCC4)CC3)nc2)=NNC1=O [Example 148, 6-[6-(1-Cyclobutyl-piperidin-4-yloxy)-pyridin-3-yl]-4,4-dimethyl-4,5-dihydro-2H-pyridazin-3-one]
0.1 to 100 | 0.1 to 100 |  |  | O=C1C2CC2C(c2ccc(OC3CCN(C4CCC4)CC3)cc2)=NN1c1ccc(F)cc1 (centres unmarked) [Example 253, 5-[4-(1-Cyclobutyl-piperidin-4-yloxy)-phenyl]-3-(4-fluoro-phenyl)-3,4-diaza-bicyclo[4.1.0]hept-4-en-2-one]
0.1 to 100 | 0.1 to 100 |  |  | CC1CC(=O)NN=C1c1ccc(OCCCN2CCC[C@H]2C)cc1 (single isomer, unassigned) [Example 196]
0.1 to 100 | 0.1 to 100 |  |  | COCn1ncc(-c2ccc(OC3CCN(C4CCC4)CC3)cc2C)cc1=O [Example 234, 5-[4-(1-Cyclobutyl-piperidin-4-yloxy)-2-methyl-phenyl]-2-methoxymethyl-2H-pyridazin-3-one]
0.1 to 100 | 0.1 to 100 |  |  | C[C@@H]1CCCN1CCCOc1ccc(-c2ccc(=O)n(CCF)n2)cc1 [Example 118, 2-(2-Fluoro-ethyl)-6-{4-[3-((R)-2-methyl-pyrrolidin-1-yl)-propoxy]-phenyl}-2H-pyridazin-3-one]
0.1 to 100 | 0.1 to 100 |  |  | O=c1ccc(-c2ccc(OC3CCN(C4CCCC4)CC3)nc2)n[nH]1 [Example 139, 6-[6-(1-Cyclopentyl-piperidin-4-yloxy)-pyridin-3-yl]-2H-pyridazin-3-one]
0.1 to 100 | 0.1 to 100 |  |  | CN1N=C(c2ccc(OC3CCN(C4CCCC4)CC3)cc2)C2CC2C1=O (centres unmarked) [Example 260, 5-[4-(1-Cyclopentyl-piperidin-4-yloxy)-phenyl]-3-methyl-3,4-diaza-bicyclo[4.1.0]hept-4-en-2-one]
501 to 1000 | 501 to 1000 |  |  | Cn1nc(-c2cccc(OCCCN3CCC[C@H]3CO)c2)c2c(c1=O)CCC2 [Example 127, 4-{3-[3-((S)-2-Hydroxymethyl-pyrrolidin-1-yl)-propoxy]-phenyl}-2-methyl-2,5,6,7-tetrahydro-cyclopenta[d]pyridazin-1-one]
> 1000 | > 1000 |  |  | O=c1ccc(-c2ccc(O[C@@H]3CCN(C4CCC4)C3)cc2)n[nH]1 [Example 161, 6-[4-((R)-1-Cyclobutyl-pyrrolidin-3-yloxy)-phenyl]-2H-pyridazin-3-one]
0.1 to 100 | 0.1 to 100 |  |  | O=c1cc(-c2ccc(OC3CCN(C4CCC4)CC3)nc2)cn[nH]1 [Example 117, 5-[6-(1-Cyclobutyl-piperidin-4-yloxy)-pyridin-3-yl]-2H-pyridazin-3-one]
